“And” between values parts separate entries of the source, which are not always exact repeats. Identical values can stand only once.
Experiments:
[1] = tested on: Candida albicans ATCC 10231; test: MIC determination and synergy testing (Kull synergy index), microplate; assay type: cell-based; set-up: QA/a: unit not given beside the values; conditions: for QA, MIC of CHDM alone / QA/a: concentration of CHDM alone (QA, MIC): C. albicans; for QA/a: concentration of CHDM alone (QA, MIC): Table 46
Method: The test cultures are listed in Table 7 along with the incubation temperatures used for growth and minimum inhibitory concentration (MIC) testing. […] C. albicans was cultured in Sabouraud dextrose broth (SDB) for approximately 44-52 hours for preparation of inoculum. A. niger was cultured on Sabouraud dextrose agar (SDA) for 3-4 days until there was confluent growth and visible spore formation. Spores were harvested from the SDA plates by flooding the surface of the plate with 5-10 mL of phosphate-buffered saline (PBS) and gently spreading the liquid across the surface of the plate with a sterile T-shaped plastic spreader (Copan Diagnostics) until there was a well-mixed suspension of spores. The resulting spore suspension was collected using a serological pipette and stored at 2-8° C. until use.
Inoculum concentration was determined by dilution plating of the cultures or spore suspension. A serial dilution in PBS was made to 10^−8 for the bacterial cultures or 10^−5 for the fungal cultures. Fifty or 100 μL of the final dilution was spread on two Trypticase-soy agar (TSA) plates for bacteria or two SDA plates for fungi. After 24 to 48 hours plates were counted and the concentrations used in each experiment were calculated.
The antimicrobial agents tested for synergy along with the respective diluents and working stock solution concentrations are shown below. For determination of MIC ranges, individual antimicrobial agent stock solutions were added to sterile medium to yield the highest level test concentrations, and then serially diluted in the medium to prepare the range of test concentrations. For synergy testing individual test concentrations were prepared in sterile medium, and then blended to form the desired combinations.
MICs were determined using a high-throughput microplate method. Individual antimicrobial agents were added to TSB (pH 7.3) for bacterial testing or SDB (pH 5.6) for fungal testing at the highest concentration to be tested. A serial dilution series was prepared at a dilution ratio of 1:1.3333 such that a one log range was covered in nine dilutions. Two-hundred microliters of the diluted antimicrobial agents were dispensed into four wells each of a sterile, 96-well, flat-bottom microplate (Nalge Nunc International). Four additional wells of the highest concentration were dispensed to serve as uninoculated high-level controls. Eight additional wells containing only broth medium were also prepared, four to serve as negative controls and four as positive controls. Three wells of each antimicrobial agent dilution were inoculated with one of the test strains in Table 7. The final well of each antimicrobial agent dilution was left uninoculated to serve as a control (and means of compensating) for any absorbance/turbidity due to the test compounds.
Microplates were inoculated using the cultures or spore suspensions prepared as described above. The S. aureus cultures were used undiluted, while the E. coli and P. aeruginosa cultures were used either undiluted or after a 1:2 dilution in sterile TSB. The C. albicans cultures were used either undiluted or following a 2-fold concentration by centrifugation. One of two means of inoculation was used to deliver a final concentration of approximately 10^5 colony-forming units (CFU)/mL of C. albicans, 10^5 spores/mL of A. niger, or 10^6 CFU/mL of bacteria. The primary method used a stainless steel pin replicator (Nalge Nunc International) mounted on a hand-operated bench-top press (Schmidt Technology Corporation) fitted with a custom-built microplate holder to dispense one microliter of each inoculum from a “master” plate containing 50-100 μL of culture into the wells of the test plate. The pin replicator was sterilized before and between inoculations by immersing in ethanol and flaming. The alternative method of inoculation was by directly pipetting 20 μL of a 1:20 dilution of each culture or spore suspension into the appropriate wells of the test plates.

Aspergillus niger = test: Test for adequate preservation in skin cream formulation (microorganism counts); assay type: cell-based; conditions: skin cream emulsion pH 6.75; concentration in label
Method: A test for adequate preservation was carried out in accordance with the European Pharmacopea (6.0) and United States Pharmacopea (5.1). The testing consisted of the inoculation of a skin cream formulation serving as an emulsion substrate. The skin cream formulation having a pH of 6.75 was as follows: […]
This skin cream was the emulsion substrate, which formed the base for all further experimentation.
For Examples 3.1 through 3.10, 390.0 g cream were weighed into a 600-ml beaker. The cream was stirred at room temperature while adding the ingredients specified in Table 51. Each sample was stirred for 2 hours, then placed in the refrigerator until inoculated.
For Examples 3.11 and 3.12, 179.4 g cream were weighed into a 400-ml beaker. The cream was stirred at room temperature while adding the specified ingredients.
The samples of Examples 3.1 through 3.10 were challenged with specific organisms (see Table 51) to produce a contamination of between 1.0×10^5 cfu/g and 1.0×10^6 cfu/g. The actual inoculation counts resulting from these challenges were immediately determined by diluting in sterile buffered water and (spread plate method) plating for enumeration.
Challenge organisms were prepared in Mueller-Hinton broth, allowed to grow for 72 hours at 35° C.+/−2° C., centrifuged at 2500 rpm for 5 minutes, and the supernatant broth was removed. The microbial pellet was then re-diluted with sterile buffered water to a turbidity that matched previous 1.0×10^8 cfu/g concentrations of that organism's specific growth curve.
The test emulsions were maintained within a specific temperature range optimal for the organisms; 35° C.+/2° C. for the bacteria and 22° C.+/−2° C. for the fungi, for the first three days. They were kept at ambient room temperature for the subsequent time periods.
Subculture samples of approximately 1 gram were taken for counts at 7, 14, and 30 days and incubated under optimal conditions and nutrition for no less than 5 days. Subcultures were diluted 1:2, 1:10, 1:100, . . . , 1:10,000 and plated using the spread plate method onto Plate Count Agar and onto SAB Dextrose Agar for the Candida and Aspergillus species; and incubated as follows: 35° C.+/−2° C. for the Plate Count Agar and 22° C.+/−2° C. for the SAB Dextrose plates of Candida albicans and Aspergillus niger. Negative results were not reported before 7 days incubation, and counts were performed after no less than 5 days incubation. Because of the high viscosity of the test emulsion, at least a 1:2 dilution was required to perform the spread plate subcultures. 0-30 counts represent a 1 to 2 dilution, numbers […] a 1:10 dilution; and the rest represent dilutions of 1:100, 1:1000, or 1:10,000. […]

OCC1CCC(CO)CC1 (centres unmarked) [1,4-CHDM, 1,4-cyclohexanedimethanol]
QA, MIC of CHDM alone ([1]; day 2 of incubation, plate 128B (MP series)): 3.00 weight percent | QA, MIC of CHDM alone ([1]; day 2 of incubation, plates 116B, 240B, 252B (PE series)): 5.85 weight percent and 6.67 weight percent and 3.56 weight percent | QA, MIC of CHDM alone ([1]; day 2 of incubation, plates 117B, 226B, 254B (CG series)): 5.63 weight percent and 5.00 weight percent and 3.56 weight percent | QA, MIC of CHDM alone ([1]; day 3 of incubation, plate 128B (MP series)): 4.00 weight percent | QA, MIC of CHDM alone ([1]; day 3 of incubation, plates 116B, 240B, 252B (PE series)): 4.75 weight percent and 5.85 weight percent and 6.67 weight percent | QA, MIC of CHDM alone ([1]; day 3 of incubation, plates 117B, 254B (CG series)): 4.75 weight percent and 6.67 weight percent | QA/a ([1]; CHDM alone (QA) or in combination with BA:DHA (a), plate 131B, day 3): 5.33 | QA/a ([1]; CHDM alone (QA) or in combination with BA:DHA (a), plate 131B, day 4): 5.33 | QA/a ([1]; CHDM alone (QA) or in combination with BA:DHA (a), plate 239B, day 2): 5.85 | QA/a ([1]; CHDM alone (QA) or in combination with BA:DHA (a), plate 239B, day 3): 5.85 | QA/a ([1]; CHDM alone (QA) or in combination with BA:DHA (a), plate 258B, day 2): 5.00 | QA/a ([1]; CHDM alone (QA) or in combination with BA:DHA (a), plate 258B, day 3): 6.67 | QA/a ([1]; CHDM alone (QA) or in combination with DMDM hydantoin (a), plate 241B, day 2): 5.85 | QA/a ([1]; CHDM alone (QA) or in combination with DMDM hydantoin (a), plate 241B, day 3): 5.85 | QA/a ([1]; CHDM alone (QA) or in combination with DMDM hydantoin (a), plate 244B, day 2): 6.00 | QA/a ([1]; CHDM alone (QA) or in combination with DMDM hydantoin (a), plate 244B, day 3): 8.00 | QA/a ([1]; CHDM alone (QA) or in combination with DMDM hydantoin (a), plate 263B, day 2): 8.00 | QA/a ([1]; CHDM alone (QA) or in combination with DMDM hydantoin (a), plate 263B, day 3): 8.00 | QA/a ([1]; CHDM alone (QA) or in combination with DMDM hydantoin (a), plate 264B, day 2): 6.67 | QA/a ([1]; CHDM alone (QA) or in combination with DMDM hydantoin (a), plate 264B, day 3): 6.67 | QA/a ([1]; CHDM: MIC alone (QA) or conc. in combination with CP (a), plate 130B, day 2): 3.00 | QA/a ([1]; CHDM: MIC alone (QA) or conc. in combination with CP (a), plate 130B, day 3): 4.00 | QA/a ([1]; CHDM: MIC alone (QA) or conc. in combination with CP (a), plate 227B, day 2): 5.63 | QA/a ([1]; CHDM: MIC alone (QA) or conc. in combination with CP (a), plate 227B, day 3): 5.63 | QA/a ([1]; CHDM: MIC alone (QA) or conc. in combination with CP (a), plate 256B, day 2): 6.67 | QA/a ([1]; CHDM: MIC alone (QA) or conc. in combination with CP (a), plate 256B, day 3): 6.67 | QA/a ([1]; CHDM: MIC alone (QA) or conc. in combination with MIT (a), plate 162B, day 3): 5.33 | QA/a ([1]; CHDM: MIC alone (QA) or conc. in combination with MIT (a), plate 200B, day 2): 6.23 | QA/a ([1]; CHDM: MIC alone (QA) or conc. in combination with MIT (a), plate 200B, day 3): 6.23 | QA/a: concentration of CHDM alone (QA, MIC) ([1]; Day 2): 4.00 weight percent and 3.38 weight percent | QA/a: concentration of CHDM alone (QA, MIC) ([1]; Day 3): 4.50 weight percent | Antimicrobial activity against Aspergillus niger in skin cream (in words) (Aspergillus niger): significant activity

Source: US20110028566A1, “COMPOSITIONS AND PRODUCTS CONTAINING CYCLOALIPHATIC DIOL ANTIMICROBIAL AGENTS AND METHODS OF USING THE COMPOSITIONS AND PRODUCTS” (EASTMAN CHEMICAL COMPANY, priority 2009, published 2011)
